Experimental data published in patent US4983597A, “Beta-lactams as anticholesterolemic agents” (Merck & Co., Inc., priority 1989, dated 1991).

The molecules below were run against T1, HMG-CoA synthase (Rattus norvegicus, UniProt P17425) (assay: HMG-CoA Synthase Inhibition Assay). Details: Table I; rat liver enzyme, 1-[14C]-acetyl-CoA incorporation.
T1 construct: The livers from male Charles River CD rats (225-350 g) were homogenized; from tissue; host or cells: rat liver (male Charles River CD rats), 100,000 x g supernatant, ammonium sulfate and DEAE-52 fraction
T1 sequence (P17425 1-520): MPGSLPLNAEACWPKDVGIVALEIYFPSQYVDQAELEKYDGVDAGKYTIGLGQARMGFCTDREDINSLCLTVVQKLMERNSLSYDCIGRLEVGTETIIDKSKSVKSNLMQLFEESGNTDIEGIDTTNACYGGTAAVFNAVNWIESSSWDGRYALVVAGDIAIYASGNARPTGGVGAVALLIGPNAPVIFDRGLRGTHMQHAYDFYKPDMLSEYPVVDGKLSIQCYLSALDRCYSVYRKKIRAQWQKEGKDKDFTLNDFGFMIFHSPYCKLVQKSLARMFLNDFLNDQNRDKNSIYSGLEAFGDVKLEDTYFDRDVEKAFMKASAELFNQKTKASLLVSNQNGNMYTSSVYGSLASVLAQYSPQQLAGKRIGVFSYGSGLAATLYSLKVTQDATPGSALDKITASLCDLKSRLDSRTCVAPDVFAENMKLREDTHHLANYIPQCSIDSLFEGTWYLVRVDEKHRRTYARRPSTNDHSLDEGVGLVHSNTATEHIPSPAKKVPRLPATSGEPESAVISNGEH
Type: biochemical
Protocol: The intrinisic HMG-CoA synthase inhibition activity of the compounds of this invention is measured by the standard in vitro protocol described below:
The livers from male Charles River CD rats (225-350 g) were homogenized in 0.25 M sucrose which was adjusted with phenylmethylsulfonylfluoride (PMSF) and N-p-tosyl-1-lysine chloromethyl ketone (TLCK) so that the final concentration of each was […], respectively. The homogenate was centrifuged at 15,000× g for 20 minutes, the supernatant filtered through a fine nylon screen to remove most of the fat layer and recentrifuged at 100,000× g for 1 hour. This supernatant was removed and 1 M potassium phosphate, dithiothreitol (DTT) and ethylene glycolbis(β-aminoethyl ether)-N,N,N',N'-tetraacetic acid (EGTA) added to give a final concentration of 0.1 M (pH 7.2), 0.5 mM and 0.1 mM, respectively. Solid ammonium sulfate was added to 50% saturation to the protein solution, it was centrifuged at 15,000× g and the supernatant discarded. This precipitated protein could be stored at -70° C. for at least one month with very little loss of activity. The ammonium sulfate precipitate was dissolved in an minimal amount of 0.06 M potassium phosphate buffer (pH 7.2) containing 0.5 mM dithiothreitol and 0.1 mM EGTA (referred to as 0.06 M phosphate buffer) and dialyzed overnight against 2 liters of the same buffer to remove the ammonium sulfate and to inactivate HMG-CoA lyase [Clinkenbeard, et al., J. Biol. Chem. 250, 3108-3116(1975)].
The dialyzed extract was added to a column of DEAE-52 (Whatman) which had been equilibrated with 0.06 M phosphate buffer (10 mg of protein in 1 ml bed volume of the resin). The DEAE-cellulose was eluted with 0.06 M phosphate buffer until the optical density at 280 nm was essentially zero. This fraction contained the β-ketoacetyl-CoA thiolase activity. The HMG-CoA synthase was eluted from the column with 0.1 M phosphate buffer (pH 7.2) containing 0.5 mM DTT and […] EGTA, and was virtually free of all thiolase activity. The protein was precipitated by the addition of ammonium sulfate to give 50% saturation. This solution was stirred for 10 minutes at 4° C. and the precipitate collected by centrifugation at 15,000 rpm for 10 minutes. The supernatant was discarded and the precipitate dissolved in a minimum of 0.06 M phosphate buffer, pH 7.2 (about 10 ml) and the enzyme stored at -80° C.
HMG-CoA Synthase Inhibition Assay
Enzyme protein (ca. 24 mg) was added to a solution containing […] Tris-HCl (pH 8.0), 11.7 μM MgCl2, 1.17 μM ethylenediaminetetraacetic acid (EDTA), 0.58 μM dithiothreitol, and the indicated concentrations of the test compound (added as a 2 mg/ml solution in dimethylsulfoxide). The incubation took place in a volume of 0.085 ml at 30° in a shaking water bath. After 5 minutes, […] of a solution containing acetoacetyl-CoA and 0.1 μCi of 1-[^14 C]-acetyl-CoA was added to give a final concentrations of 0.1 and 0.4 μM, respectively. The incubation was continued for 10 more minutes and the reaction stopped by the addition of […] of the assay mixture to 0.2 ml of 6N HCl in a glass scintillation vial. The vial was heated for 1 hour at 120° after which time 0.2 ml more of 6N HCl was again added to each vial and the heating continued for another hour. Following this, 1.0 ml of 0.9% saline was added to each vial and finally 10 ml of scintillation liquid. Radioactivity was determined in a Packard Tri-Carb liquid scintillation counter. Percent inhibition is calculated by the formula: [formula]
IC50 values were determined by plotting the log of the concentration of the test compound verses the percentage inhibition and fitting a straight line to the resulting data by using the least squares method.

| IC50 | SMILES |
| --- | --- |
| 350 nM | CC[C@@H]1C(=O)N(S(=O)(=O)c2ccc(C)cc2)[C@@H]1COC(=O)c1ccc(C(=O)O)cc1 (relative stereo) [Table I x] |
| 7.9 nM | CC[C@@H]1C(=O)N(S(=O)(=O)c2ccc(C)cc2)[C@@H]1COC(=O)c1ccco1 (relative stereo) [Table I g] |
| 39 nM | CC[C@@H]1C(=O)N(S(=O)(=O)c2ccc(C)cc2)[C@@H]1COC(=O)c1cccc([N+](=O)[O-])c1 (relative stereo) [Table I k] |
| 130 nM | COc1ccc(C(=O)OC[C@@H]2[C@H](C(C)C)C(=O)N2S(=O)(=O)c2ccc(C)cc2)cc1 (relative stereo) [Table I hh] |
| 50 nM | CC[C@@H]1C(=O)N(S(=O)(=O)c2ccc(C)cc2)[C@@H]1COC(=O)c1cc2ccccc2oc1=O (relative stereo) [Table I ee] |
| 72 nM | CC[C@@H]1C(=O)N(S(=O)(=O)c2ccc(C)cc2)[C@@H]1COC(=O)c1cccc(NC(C)=O)c1 (relative stereo) [Table I u] |
| 45 nM | CCCCc1ccc(C(=O)OC[C@@H]2[C@H](CC)C(=O)N2S(=O)(=O)c2ccc(C)cc2)nc1 (relative stereo) [Table I h] |
| 38 nM | CC[C@@H]1C(=O)N(S(=O)(=O)c2ccc(C)cc2)[C@@H]1COC(=O)c1cnc(OC)c(OC)c1 (relative stereo) [Table I oo] |
| 200 nM | CC[C@H]1C(=O)N(S(=O)(=O)c2ccc(C)cc2)[C@H]1COC(=O)c1ccc(OC)cc1 [Table I j] |
| 25 nM | CC[C@@H]1C(=O)N(S(=O)(=O)c2ccc(C)cc2)[C@@H]1COC(=O)c1cccc(NS(C)(=O)=O)c1 (relative stereo) [Table I b] |
| 30 nM | CC[C@@H]1C(=O)N(S(=O)(=O)c2ccc(C)cc2)[C@@H]1COC(=O)c1ccc(OC)cc1 [Table I i] |
| 62 nM | CC[C@@H]1C(=O)N(S(=O)(=O)c2ccc(C)cc2)[C@@H]1COC(=O)c1ccc(C(=O)OC(c2ccccc2)c2ccccc2)cc1 (relative stereo) [Table I w] |
| 47 nM | CC[C@@H]1C(=O)N(S(=O)(=O)c2ccc(C)cc2)[C@@H]1COC(=O)c1ccc(N)cc1 (relative stereo) [Table I kk] |
| 25 nM | CC[C@@H]1C(=O)N(S(=O)(=O)c2ccc(C)cc2)[C@@H]1COC(=O)c1ccnc2ccccc12 (relative stereo) [Table I r] |
| 40 nM | CC[C@@H]1C(=O)N(S(=O)(=O)c2ccc(C)cc2)[C@@H]1COC(=O)c1ccc(OCc2ccccc2)cc1 (relative stereo) [Table I q] |
| 16 nM | CC[C@@H]1C(=O)N(S(=O)(=O)c2ccc(C)cc2)[C@@H]1COC(=O)c1ccc(NS(C)(=O)=O)cc1 (relative stereo) [Table I nn] |
| 33 nM | CC[C@@H]1C(=O)N(S(=O)(=O)c2ccc(C)cc2)[C@@H]1COC(=O)c1cc2ccccc2o1 (relative stereo) [Table I ff] |
| 38 nM | CC[C@@H]1C(=O)N(S(=O)(=O)c2ccc(C)cc2)[C@@H]1COC(=O)c1cccs1 (relative stereo) [Table I s] |
| 31 nM | CC[C@@H]1C(=O)N(S(=O)(=O)c2ccc(C)cc2)[C@@H]1COC(=O)c1ccccc1NS(C)(=O)=O (relative stereo) [Table I l] |
| 23 nM | CC[C@@H]1C(=O)N(S(=O)(=O)c2ccc(C)cc2)[C@@H]1COC(=O)c1ccccc1[N+](=O)[O-] (relative stereo) [Table I c] |
| 64 nM | CC[C@@H]1C(=O)N(S(=O)(=O)c2ccc(C)cc2)[C@@H]1COC(=O)c1cccnc1 (relative stereo) [Table I bb] |
| 160 nM | C=CCOc1c(OC)cc(C(=O)OC[C@@H]2[C@H](CC)C(=O)N2S(=O)(=O)c2ccc(C)cc2)cc1[N+](=O)[O-] (relative stereo) [Table I ll] |
| 69.5 nM | CCC[C@@H]1C(=O)N(S(=O)(=O)c2ccc(C)cc2)[C@@H]1COC(=O)c1ccc(OC)cc1 (relative stereo) [Table I z] |

Same assay, conditions: Table II; rat liver enzyme, 1-[14C]-acetyl-CoA incorporation

| IC50 | SMILES |
| --- | --- |
| 31 nM | CC[C@@H]1C(=O)N(S(=O)(=O)c2ccc(C)cc2)[C@@H]1COC(=O)/C=C/c1cccnc1 (relative stereo) [Table II h] |
| 90 nM | CCCOc1c(Br)cc(/C=C/C(=O)OC[C@@H]2[C@H](CC)C(=O)N2S(=O)(=O)c2ccc(C)cc2)cc1OC (relative stereo) [Table II u] |
| 54 nM | CC[C@H]1C(=O)N(S(=O)(=O)c2ccc(C)cc2)[C@H]1COC(=O)NC1CCCCC1 (relative stereo) [Table II w] |
| 260 nM | CC[C@H]1C(=O)N(S(=O)(=O)c2ccc(C)cc2)[C@H]1COC(=O)Nc1ccc(C(F)(F)F)cc1 (relative stereo) [Table II x] |
| 27 nM | CC[C@H]1C(=O)N(S(=O)(=O)c2ccc(C)cc2)[C@H]1COC(=O)/C=C/c1ccc(OC)c(OC)n1 (relative stereo) [Table II z] |
| 11 nM | CC[C@@H]1C(=O)N(S(=O)(=O)c2ccc(C)cc2)[C@@H]1COC(=O)/C=C/c1ccc(OC)cc1 [Table II k] |
| 20 nM | CC[C@H]1C(=O)N(S(=O)(=O)c2ccc(C)cc2)[C@H]1COC(=O)Cc1cc(OC)c(OC)c(OC)c1 (relative stereo) [Table II s] |

| SMILES | IC50 |
| --- | --- |
| CC[C@@H]1C(=O)N(S(=O)(=O)c2ccc(C)cc2)[C@@H]1COC(=O)[C@H](OC)c1ccccc1 [Table II d, cis-(3S), (4S)-3-Ethyl-4-[(R)-α-methoxyphenylacetoxyl]methyl-N-toluenesulfonyl-2-azetidinone] | 18 nM |

Same assay, conditions: Table III; rat liver enzyme, 1-[14C]-acetyl-CoA incorporation

| IC50 | SMILES |
| --- | --- |
| 110 nM | CC[C@H]1C(=O)N(S(=O)(=O)c2ccc(C)cc2)[C@H]1COS(=O)(=O)c1ccc(C)cc1 (relative stereo) [Table III] |

Same assay, conditions: Table IV; rat liver enzyme, 1-[14C]-acetyl-CoA incorporation

| IC50 | SMILES |
| --- | --- |
| 50000 nM | CC[C@@H]1C(=O)N(S(=O)(=O)c2ccc(C)cc2)[C@H]1C(C)=Cc1ccccc1 (relative stereo) [Table IV e] |
| 1100 nM | Cc1ccc(S(=O)(=O)N2C(=O)[C@H](CO)[C@@H]2C=Cc2ccccc2)cc1 (relative stereo) [Table IV d] |
| 430 nM | CC[C@@H]1C(=O)N(S(=O)(=O)c2ccc(C)cc2)[C@@H]1C(C)=Cc1ccccc1 (relative stereo) [Table IV f] |

Same assay, conditions: Table V; rat liver enzyme, 1-[14C]-acetyl-CoA incorporation

| IC50 | SMILES |
| --- | --- |
| 175 nM | CCC1C(=O)N(S(=O)(=O)c2ccc(C)cc2)C1C(C)Cc1ccccc1 (stereo not drawn) [Table V d] |
| 490 nM | CC(=O)OC(c1ccccc1)C(C)C1CC(=O)N1S(=O)(=O)c1ccc(C)cc1 (stereo not drawn) [Table V f] |
| 86 nM | CC[C@H]1C(=O)N(S(=O)(=O)c2ccc(C)cc2)[C@H]1CCc1ccccc1 (relative stereo) [Table V b] |

Same assay, conditions: Table VI; rat liver enzyme, 1-[14C]-acetyl-CoA incorporation

| IC50 | SMILES |
| --- | --- |
| 400 nM | Cc1ccc(S(=O)(=O)N2C(=O)C(C)(C)C2C(Cc2ccccc2)OC(=O)c2ccccc2)cc1 (stereo not drawn) [Table VI b] |
